What all share (assay): NCI-60 cell line screen, 48 h
The test system of test [1] is TK-10 renal.
For test [2], the system named is HCT-15 colon.
For test [3], the system named is HCT-116 colon.
The subject of test [4] is OVCAR-5 ovarian.
Test [5] deals with NCI/ADR-RES ovarian.
For test [6], the system named is MDA-MB-435.
For test [7], the system named is HT29 colon.
For test [8], the system named is HS 578T breast.
For test [9], the system named is KM12 colon.
Test [10] relates to SF-295 CNS.

SMILES strings stand for the structures. Values after ≈ are worked out from the molar mass of the structure shown.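 1) Cells in 96-well plates. 2) Compound, 48 h, 5 concentrations. 3) Linear interpolation between surrounding doses. 4) Unreached endpoint = highest concentration. GI50: concentration for 50% inhibition of growth. The concentration for full growth arrest is given as TGI.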

This passage reports TGI and GI50 results from PubChem BioAssay (NCI).

Take `O=C1C(Br)=C(c2ccccc2)S(=O)c2ccccc21` (stereo not given): the TGI is 32.2 µM in [1]; 14.1 µM in test [2]; 20.4 µM in [3]; 41 µM in test [4]; above 100 µM in test [5]; 19.5 µM in test [6]. Further, the TGI amounted to 63.5 µM in test [7], 80.6 µM in test [8], 30.7 µM in test [9] and 34.6 µM in test [10].
In the case of `COc1cc(/C=C2/N=C(c3ccccc3)N(C3=NNC4(C(=O)N3)c3ccccc3-c3ccccc34)NC2=O)ccc1O`, the GI50 in [1] is 35.8 µg/mL (≈ 64.3 µM); in [2], 46.7 µg/mL (≈ 83.8 µM); in [3] it was 26.1 µg/mL (≈ 46.8 µM); in [4], 44.6 µg/mL (≈ 80.1 µM); in test [5], 45.8 µg/mL (≈ 82.3 µM); in test [6] it was 26.7 µg/mL (≈ 47.9 µM). Moreover, the GI50 in [7] was 27.7 µg/mL (≈ 49.7 µM); in test [8], 19.8 µg/mL (≈ 35.5 µM); in [9] it was 22.7 µg/mL (≈ 40.9 µM); in test [10] it was 19.7 µg/mL (≈ 35.5 µM). The TGI is 78.2 µg/mL in test [1]; above 150 µg/mL in [2]; 47.3 µg/mL in test [3]; above 150 µg/mL in test [4]; above 150 µg/mL in test [5]; 54.4 µg/mL in test [6]. For the same molecule, the TGI in test [7] worked out at 49.1 µg/mL; in [8], 42.5 µg/mL; in test [9] it was 42.9 µg/mL; in [10], 42.5 µg/mL.
In the case of `CC(=O)N1CCN(C23OC4(N5CCN(C(C)=O)CC5)C5C6CC(C7C6C4C72)C53)CC1` (stereo not given), the TGI in [1], in test [2], in test [3], in test [4], in test [5] and in test [6] was above 100 µM throughout. In addition, the TGI in [7], in test [8], in [9] and in test [10] was above 100 µM in each case.
On to `C=CC[C@@]1(C(=O)OC)[C@H](Sc2ccccc2)C1(C)C`, for which the TGI in test [1], in [2], in test [3], in test [4], in [5] and in [6] was above 100 µM throughout. The TGI in test [7], in [8], in [9] and in [10] was above 100 µM throughout.
In the case of `COc1cc(C2S/C(=C/c3ccccc3)C(=O)N2c2ccc(Cl)c(Cl)c2)cc(OC)c1OC` (stereo not given), the TGI in test [1] was above 100 µM; in [2] it was above 100 µM; in test [3], above 78.9 µM; in [4], above 100 µM; in test [5], above 100 µM; in test [6], above 90.4 µM. For the same molecule, the TGI in test [7] was above 100 µM; in test [8], above 91.5 µM; in test [9] it was above 70.3 µM; in [10], above 100 µM.
`O=C1/C(=C2\Sc3c(ccc(Cl)c3Cl)C2=O)Sc2c1ccc(Cl)c2Cl`: the TGI in test [1], in [2], in test [3], in [4], in test [5] and in test [6] was above 100 µM in each case. The TGI in test [7], in [8], in test [9] and in test [10] was above 100 µM each time.
`c1ccc2c(c1)nc1n2CCSC1`: the TGI in test [1], in test [2], in test [3], in [4], in test [5] and in [6] was above 100 µM throughout. Moreover, the TGI in [7], in test [8], in test [9] and in test [10] was above 100 µM throughout.
Consider `CC1(C)Oc2ccc(NC(=O)CCC(N)C(=O)O)cc2O1` (stereo not given), for which the TGI in test [1], in test [2], in [3], in test [4], in [5] and in test [6] was above 100 µM each time. Moreover, the TGI in test [7], in test [8], in [9] and in [10] was above 100 µM each time.
Turning to `CCc1ccc2c(c1)CC1(C2)Cc2cc3c(cc2C1)C(=O)CC3` (stereo not given), the TGI in test [1] is above 100 µM; in [2], 67.3 µM; in test [3], 29.9 µM; in test [4] it was above 100 µM; in [5], above 100 µM; in test [6], 8.53 µM. Moreover, the TGI was 23.9 µM in test [7], above 100 µM in test [8], above 100 µM in [9] and 65.3 µM in [10].
In the case of `COc1cc2c(/C=C3/C(=O)N(c4ccccc4)c4ccccc43)c(Cl)[nH]c2cc1C`, the TGI in test [1] is 12.8 µM; in test [2], 11.4 µM; in [3], 16.6 µM; in test [4], above 40.5 µM; in [5], 6.49 µM; in test [6] it was 3.55 µM. In addition, the TGI in test [7] was above 31 µM; in test [8], above 100 µM; in [9], 8.07 µM; in test [10], above 22.3 µM.
For the molecule `CN(Cc1cnc2nc(N)nc(N)c2n1)c1ccc(C(=O)NC(CCC(=O)NC(P(=O)(O)O)P(=O)(O)O)C(=O)O)cc1` (stereo not given), the TGI in [1], in [2], in test [3], in test [4], in test [5] and in test [6] was above 100 µM throughout. Further, the TGI in [7], in test [8], in test [9] and in test [10] was above 100 µM in each case.
Regarding `C/C(O)=C/c1nc2ccc([N+](=O)[O-])cc2nc1/C=C(/C)O`, the TGI in test [1], in test [2], in [3], in test [4], in [5] and in [6] was above 100 µM in each case. The TGI in [7] is above 100 µM; in test [8] it was 85.3 µM; in [9], above 100 µM; in test [10], above 100 µM.
